This is an account of results in ChEMBL document CHEMBL1150330, “Muscarinic antagonists with multiple stereocenters: Synthesis, affinity profile and functional activity of isomeric 1-methyl-2-(2,2-alkylaryl-1,3-oxathiolan-5-yl)pyrrolidine sulfoxide derivatives” (Bioorg Med Chem, 2008).

As a reminder, the Ki is the equilibrium dissociation constant of an inhibitor or competing ligand from its target. High values mean a looser hold on the target, low ones a stronger hold on the target. One may read the pKb as the negative decadic logarithm of the Kb, by convention in mol/L.

In test [1] the target is T1, Muscarinic acetylcholine receptor M2 (Homo sapiens, UniProt P08172).
T1 sequence (P08172 whole entry): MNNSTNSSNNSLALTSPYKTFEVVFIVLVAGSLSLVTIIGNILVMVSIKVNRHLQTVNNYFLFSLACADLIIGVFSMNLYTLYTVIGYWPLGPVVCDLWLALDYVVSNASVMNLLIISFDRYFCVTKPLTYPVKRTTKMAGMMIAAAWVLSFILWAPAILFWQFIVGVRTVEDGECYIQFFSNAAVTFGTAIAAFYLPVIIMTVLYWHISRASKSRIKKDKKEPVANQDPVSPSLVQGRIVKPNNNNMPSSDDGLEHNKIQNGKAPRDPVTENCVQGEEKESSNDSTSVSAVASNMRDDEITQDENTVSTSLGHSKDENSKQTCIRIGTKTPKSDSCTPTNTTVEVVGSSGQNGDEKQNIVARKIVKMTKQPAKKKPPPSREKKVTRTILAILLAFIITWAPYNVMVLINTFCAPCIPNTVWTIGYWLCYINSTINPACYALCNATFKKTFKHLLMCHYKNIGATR
As to the kind of experiment: Displacement of [3H]NMS from human muscarinic M2 receptor expressed in CHO cells. In kind it is cell-based. On the technique in general: Loss of bound radioactivity is the signal in a displacement assay; it reports binding, not function.

Test [2] addresses T2, Muscarinic acetylcholine receptor M5 (Homo sapiens, UniProt P08912).
T2 sequence (P08912 whole entry): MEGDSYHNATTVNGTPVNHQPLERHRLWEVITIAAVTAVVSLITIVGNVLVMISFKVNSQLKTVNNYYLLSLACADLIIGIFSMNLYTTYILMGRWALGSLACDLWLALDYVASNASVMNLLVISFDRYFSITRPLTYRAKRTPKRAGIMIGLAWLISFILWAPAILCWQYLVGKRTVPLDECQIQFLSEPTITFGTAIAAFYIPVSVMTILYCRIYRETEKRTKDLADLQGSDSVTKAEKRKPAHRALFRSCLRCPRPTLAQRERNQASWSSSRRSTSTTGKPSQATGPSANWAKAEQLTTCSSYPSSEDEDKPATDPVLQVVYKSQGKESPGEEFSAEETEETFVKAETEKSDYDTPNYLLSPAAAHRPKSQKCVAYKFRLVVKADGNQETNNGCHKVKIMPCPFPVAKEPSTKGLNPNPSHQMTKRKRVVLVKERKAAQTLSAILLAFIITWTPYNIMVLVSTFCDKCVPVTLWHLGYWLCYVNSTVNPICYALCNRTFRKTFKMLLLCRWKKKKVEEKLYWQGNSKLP
The test can be described thus: Displacement of [3H]NMS from human muscarinic M5 receptor expressed in CHO cells. In kind it is cell-based.

Test [3] can be described thus: Antagonist activity against muscarinic M4 receptor in guinea pig lung strip assessed as effect on electrically-stimulated contraction. The format is functional, Cavia porcellus.
Test [4] in a line: Antagonist activity against muscarinic M2 receptor in guinea pig atria assessed as effect on electrically-stimulated atria. In kind it is functional, Cavia porcellus.
For test [5], the target named is Muscarinic acetylcholine receptor M3 (Homo sapiens, UniProt P20309). As to the kind of experiment: Displacement of [3H]NMS from human muscarinic M3 receptor expressed in CHO cells. In kind it is cell-based.
Test [6] addresses T3, Muscarinic acetylcholine receptor M1 (Homo sapiens, UniProt P11229).
T3 sequence (P11229 whole entry): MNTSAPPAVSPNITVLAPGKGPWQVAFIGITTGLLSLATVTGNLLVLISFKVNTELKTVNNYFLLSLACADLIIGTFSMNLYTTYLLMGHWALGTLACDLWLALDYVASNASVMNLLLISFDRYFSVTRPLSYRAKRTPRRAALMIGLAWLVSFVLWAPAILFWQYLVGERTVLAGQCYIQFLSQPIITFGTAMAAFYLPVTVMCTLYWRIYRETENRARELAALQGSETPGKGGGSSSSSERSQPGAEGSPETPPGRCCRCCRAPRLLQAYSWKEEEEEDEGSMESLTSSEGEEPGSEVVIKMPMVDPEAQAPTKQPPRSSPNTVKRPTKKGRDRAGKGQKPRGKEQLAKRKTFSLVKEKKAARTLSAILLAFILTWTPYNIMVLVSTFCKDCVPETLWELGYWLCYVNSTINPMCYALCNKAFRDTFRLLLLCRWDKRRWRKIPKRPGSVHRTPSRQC
As to the kind of experiment: Displacement of [3H]NMS from human muscarinic M1 receptor expressed in CHO cells. The format is cell-based.

Test [7] is described as follows: Antagonist activity against muscarinic M3 receptor in guinea pig ileum assessed as effect on ileum tension. The format is functional, Cavia porcellus.
The target of test [8] is T4, Muscarinic acetylcholine receptor M4 (Homo sapiens, UniProt P08173).
T4 sequence (P08173 whole entry): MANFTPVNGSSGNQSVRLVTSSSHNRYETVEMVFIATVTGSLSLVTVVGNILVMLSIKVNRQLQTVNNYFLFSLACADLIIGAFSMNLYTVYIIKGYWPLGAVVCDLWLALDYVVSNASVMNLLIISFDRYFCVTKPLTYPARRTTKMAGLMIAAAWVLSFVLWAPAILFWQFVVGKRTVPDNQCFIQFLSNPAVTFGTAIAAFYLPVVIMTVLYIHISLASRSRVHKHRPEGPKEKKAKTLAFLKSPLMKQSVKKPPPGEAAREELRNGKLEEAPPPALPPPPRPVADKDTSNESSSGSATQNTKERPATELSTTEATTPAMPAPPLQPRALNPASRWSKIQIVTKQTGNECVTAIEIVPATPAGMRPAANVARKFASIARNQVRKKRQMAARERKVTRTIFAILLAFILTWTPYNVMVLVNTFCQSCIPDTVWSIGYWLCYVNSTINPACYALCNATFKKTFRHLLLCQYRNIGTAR
The test can be described thus: Displacement of [3H]NMS from human muscarinic M4 receptor expressed in CHO cells. In kind it is cell-based.

The structures appear in SMILES notation.

Chain of Muscarinic acetylcholine receptor M3 (P20309 whole entry): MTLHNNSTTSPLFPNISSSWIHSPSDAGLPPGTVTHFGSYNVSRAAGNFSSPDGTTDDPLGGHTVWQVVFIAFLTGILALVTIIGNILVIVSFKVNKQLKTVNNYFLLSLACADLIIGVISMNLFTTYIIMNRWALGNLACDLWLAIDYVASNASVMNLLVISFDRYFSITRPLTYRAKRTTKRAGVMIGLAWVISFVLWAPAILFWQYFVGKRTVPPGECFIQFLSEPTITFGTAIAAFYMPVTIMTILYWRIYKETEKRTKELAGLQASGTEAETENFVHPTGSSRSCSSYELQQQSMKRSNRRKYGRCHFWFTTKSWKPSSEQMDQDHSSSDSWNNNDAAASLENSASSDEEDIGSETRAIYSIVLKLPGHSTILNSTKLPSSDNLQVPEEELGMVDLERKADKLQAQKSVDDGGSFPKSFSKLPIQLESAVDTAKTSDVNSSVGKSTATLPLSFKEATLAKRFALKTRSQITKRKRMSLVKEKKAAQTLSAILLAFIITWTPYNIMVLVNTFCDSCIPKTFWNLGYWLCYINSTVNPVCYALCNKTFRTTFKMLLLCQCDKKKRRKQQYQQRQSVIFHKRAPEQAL

Turning to `C[N+]1(C)CCC[C@H]1[C@H]1C[S+]([O-])C(c2ccccc2)(c2ccccc2)O1.[I-]` (stereo in doubt; (-)-11), the Ki in test [1] is 41.7 nM; in test [2], 30.2 nM; in test [5], 51.3 nM; in test [6], 15.8 nM; in test [8], 105 nM. The negative logarithm of the Kb (pKb) was <5 in test [3], 6.93 in test [4] and 7.89 in test [7].
As to `C[N+]1(C)CCC[C@@H]1[C@@H]1C[S+]([O-])C(c2ccccc2)(c2ccccc2)O1.[I-]` (stereo in doubt; (+)-11), the Ki was 195 nM in test [1]; 813 nM in test [2]; 417 nM in test [5]; 324 nM in test [6]; 1170 nM in test [8]. The pKb in test [3] was determined as 5.25; in test [4] it was 7; in test [7], 7.62.
`C[N+](C)(C)C[C@@H]1C[S@](=O)[C@@](c2ccccc2)(C2CCCCC2)O1.[I-]`: the Ki in test [1] was 74.1 nM; in test [2], 141 nM; in test [5] it was 34.7 nM; in test [6] it was 21.9 nM; in test [8], 95.5 nM. The results for the negative-log Kb (pKb) in test [3], in test [4] and in test [7] were 5.24, 7.52 and 7.64, respectively.
As to `CN1CCC[C@H]1[C@H]1C[S+]([O-])C(c2ccccc2)(c2ccccc2)O1` (stereo in doubt; (-)-5), the inhibition constant Ki in test [1] is 219 nM; in test [2], 229 nM; in test [5] it was 302 nM; in test [6], 145 nM; in test [8] it was 407 nM. Besides, the pKb in test [3] is on record as <5; in test [4] it was 6.42; in test [7], 6.99.
With `CN1CCC[C@H]1[C@H]1C[S+]([O-])C(c2ccccc2)(c2ccccc2)O1` (stereo in doubt; (+)-4), the inhibitory constant (Ki) is 562 nM in test [1]; 513 nM in test [2]; 468 nM in test [5]; 110 nM in test [6]; 1020 nM in test [8]. Moreover, the pKb in test [3] is listed as 5.29; in test [4], 6; in test [7] it was 6.55.
For the molecule `CN1CCC[C@H]1[C@H]1C[S+]([O-])[C@@](c2ccccc2)(C2CCCCC2)O1` (stereo in doubt; (+)-6), the Ki was 1020 nM in test [1]; 525 nM in test [2]; 389 nM in test [5]; 155 nM in test [6]; 447 nM in test [8]. The results for the pKb in test [3], in test [4] and in test [7] were <5, 5.48 and 6.43, respectively.
On to `C[N+]1(C)CCC[C@H]1[C@H]1C[S+]([O-])[C@](c2ccccc2)(C2CCCCC2)O1.[I-]` (stereo in doubt; (-)-14), for which the Ki in test [1] was 550 nM; in test [2] it was 331 nM; in test [5] it was 324 nM; in test [6], 155 nM; in test [8] it was 603 nM. For the same molecule, the results for the negative logarithm of the Kb (pKb) in test [3], in test [4] and in test [7] were 5.24, 6.03 and 6.68, respectively.
As for `C[N+]1(C)CCC[C@@H]1[C@@H]1C[S+]([O-])C(c2ccccc2)(c2ccccc2)O1.[I-]` (stereo in doubt; (-)-10), the Ki in test [1] is 69.2 nM; in test [2] it was 182 nM; in test [5] it was 263 nM; in test [6], 53.7 nM; in test [8], 282 nM. The pKb turned out to be 6.53 in test [3], 7.3 in test [4] and 7.5 in test [7].
For `CN1CCC[C@@H]1[C@@H]1C[S+]([O-])[C@@](c2ccccc2)(C2CCCCC2)O1` (stereo in doubt; (+)-8), the Ki in test [1] was 66.1 nM; in test [2] it was 30.2 nM; in test [5], 24 nM; in test [6], 38 nM; in test [8], 93.3 nM. Besides, the negative logarithm of the Kb (pKb) in test [3] is reported as <5; in test [4], 7.05; in test [7], 7.71.
On to `C[N+]1(C)CCC[C@@H]1[C@@H]1C[S+]([O-])[C@@](c2ccccc2)(C2CCCCC2)O1.[I-]` (stereo in doubt; (+)-15), for which the inhibition constant (Ki) in test [1] is 77.6 nM; in test [2], 224 nM; in test [5], 162 nM; in test [6], 93.3 nM; in test [8], 302 nM. Besides, the figures for the pKb in test [3], in test [4] and in test [7] were 6.48, 6.97 and 7.1, respectively.
As to `CN1CCC[C@@H]1[C@@H]1C[S+]([O-])C(c2ccccc2)(c2ccccc2)O1` (stereo in doubt; (-)-4), the Ki in test [1] was 229 nM; in test [2] it was 355 nM; in test [5], 513 nM; in test [6] it was 74.1 nM; in test [8] it was 513 nM. The pKb is 5.75 in test [3], 7.27 in test [4] and 6.95 in test [7].
As to `CN1CCC[C@@H]1[C@@H]1C[S+]([O-])[C@](c2ccccc2)(C2CCCCC2)O1` (stereo in doubt; (-)-6), the inhibition constant (Ki) in test [1] was 107 nM; in test [2], 275 nM; in test [5] it was 195 nM; in test [6], 79.4 nM; in test [8] it was 355 nM. Also, the figures for the negative-log Kb (pKb) in test [3], in test [4] and in test [7] were 7.24, 7.34 and 7.39, respectively.
In the case of `CN1CCC[C@@H]1[C@@H]1C[S+]([O-])C(c2ccccc2)(c2ccccc2)O1` (stereo in doubt; (+)-5), the Ki in test [1] is 39.8 nM; in test [2] it was 339 nM; in test [5], 282 nM; in test [6], 110 nM; in test [8], 316 nM. Also, the negative logarithm of the Kb (pKb) amounted to 5.63 in test [3], 7.1 in test [4] and 7.17 in test [7].
As to `C[N+]1(C)CCC[C@H]1[C@H]1C[S+]([O-])[C@@](c2ccccc2)(C2CCCCC2)O1.[I-]` (stereo in doubt; (+)-13), the Ki in test [1] was 17.8 nM; in test [2] it was 3.02 nM; in test [5] it was 4.17 nM; in test [6] it was 3.02 nM; in test [8], 15.8 nM. Besides, the results for the negative logarithm of the Kb (pKb) in test [3], in test [4] and in test [7] were 6.37, 7.81 and 8.67, respectively.
Consider `C[N+]1(C)CCC[C@H]1[C@H]1C[S+]([O-])[C@@](c2ccccc2)(C2CCCCC2)O1.[I-]` (stereo in doubt; (+)-12), for which the Ki in test [1] is 70.8 nM; in test [2] it was 23.4 nM; in test [5], 26.9 nM; in test [6], 12 nM; in test [8], 58.9 nM. The values for the negative-log Kb (pKb) in test [3], in test [4] and in test [7] were 5.41, 6.57 and 7.03, respectively.
